According to PMC2120305 (The Journal of Cell Biology, 1994):
Where “and” joins values, the source holds several entries; their conditions need not be identical. Equal entries are not always repeated. Where two headings read alike, the source gives them in different places.

How the values were obtained:
[1] = tested on: glycosylation of VSV-g protein; assay type: biochemical, CHO cells
[2] = tested on: glycosylation of endogenous VSV-g protein; assay type: biochemical, CHO cells
Golgi membranes = assay: Membrane integrity: retention of a preformed UDP-[3H]-GlcNAc gradient; assay type: biochemical, CHO cells; conditions: Fig. 5 A; MAS 3.3 µM, ARFp13 43 µM, NEM 1 mM, SDS 50 µM; 10 min with inhibitors
in vitro Golgi transport = assay type: biochemical, CHO cells
[3] = tested on: beta-COP binding to isolated Golgi membranes; conditions: 25 µM MAS; cited from earlier work
[4] = tested on: p200 binding to rat liver Golgi membranes; conditions: 100 µM MAS; cited from earlier work
[5] = tested on: release of vesicles from the TGN of PC12 cells; conditions: cited from earlier work

CCN1C(=O)C=CC1=O [NEM]
Glycosylation of VSV-g protein after its delivery to the acceptor compartment [1]: subse- quent glycosylation is inhibited
Effect on glycosylation of VSV-g protein [2]: similarly inhibitory effect
Integrity of the membranes (Golgi membranes): near complete loss of membrane integrity

CCCCCCCCCCCCOS(=O)(=O)[O-].[Na+] [SDS]
Effect on glycosylation of VSV-g protein [2]: similarly inhibitory effect
Integrity of the membranes (Golgi membranes): only partially compromised

Mastoparan
IC50 with normal versus ARF-depleted cytosol (in vitro Golgi transport): the same
IC50 (in vitro Golgi transport; read-out: IC50 for inhibition of in vitro Golgi transport): 0.75 µM
IC50 (in vitro Golgi transport; read-out: IC50 in vitro transport, addition of BFA 0 µM): 2.2 µM
IC50 (in vitro Golgi transport; read-out: IC50 in vitro transport, addition of BFA 200 µM): 2 µM
IC50 (in vitro Golgi transport; read-out: IC50 in vitro transport, addition of GTP 0 µM): 1.4 µM
IC50 (in vitro Golgi transport; read-out: IC50 in vitro transport, addition of GTP 50 µM): 1.3 µM
IC50 (in vitro Golgi transport; read-out: IC50 in vitro transport, mock-treated membranes): 1.3 µM
IC50 (in vitro Golgi transport; read-out: IC50 in vitro transport, pertussis toxin treated membranes): 1.3 µM
Glycosylation of VSV-g protein after its delivery to the acceptor compartment [1]: subse- quent glycosylation is inhibited
IC50 ([1]; read-out: IC50, peptide added before glycosylation): 2800 nM and 1900 nM
Effect on glycosylation of VSV-g protein [2]: similarly inhibitory effect
Integrity of the membranes (Golgi membranes): near complete loss of membrane integrity
Increase in the amount of beta-COP bound to isolated Golgi membranes [3]: 10 fold
Stimulation of p200 binding to rat liver Golgi membranes in vitro [4]: more than sevenfold
Inhibition of release of vesicles from the TGN [5]: ~30%

Pertussis toxin
Stimulation of TGN vesicle release after pertussis toxin treatment [5]: 1.6- 1.7 fold
